The compounds below were run against Human factor D (Homo sapiens (Human), UniProt P00746) (assay: Human Factor D Assay). Conditions: human factor D 80 nM, substrate Z-L-Lys-SBzl, DTNB, OD405.
Assay type: biochemical
Description: Human factor D (purified from human serum, Complement Technology, Inc.) at 80 nM final concentration is incubated with test compound at various concentrations for 5 minutes at room temperature in 50 mM Tris, 1M NaCl, pH 7.5. A synthetic substrate Z-L-Lys-SBzl and DTNB (Ellman's reagent) are added to final concentrations of 10 μM each. The increase in color is recorded at OD405 nm in a microplate in kinetic mode over 30 minutes with 30 second time points in a […]. IC50 values are calculated by non-linear regression from the percentage of inhibition of complement factor D activity as a function of test compound concentration.

Sequence of Human factor D (P00746 26-253): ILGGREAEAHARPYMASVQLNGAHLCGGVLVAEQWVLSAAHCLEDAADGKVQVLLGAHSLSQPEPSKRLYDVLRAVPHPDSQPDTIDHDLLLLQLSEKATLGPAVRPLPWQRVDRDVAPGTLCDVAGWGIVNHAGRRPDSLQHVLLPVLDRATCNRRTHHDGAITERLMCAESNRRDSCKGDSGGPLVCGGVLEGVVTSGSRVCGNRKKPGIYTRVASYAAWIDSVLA

Row | Compound | IC50 [nM]
1 | CC(=O)n1cc(CC(=O)N2C[C@H](F)C[C@H]2C(=O)Nc2cccc(-c3ccccc3Cl)c2F)c2ccsc21 [Compound 90, (2S,4R)-1-(2-(6-acetyl-6H-thieno[2,3-b]pyrrol-4-yl)acetyl)-N-(2′-chloro-2-fluorobiphenyl-3-yl)-4-fluoropyrrolidine-2-carboxamide] | < 1000
2 | CC(=O)Nc1cccc2c1c(C(C)=O)cn2CC(=O)N1C[C@H](F)C[C@H]1C(=O)Nc1cccc(-c2ccccc2Cl)c1F [Compound 91, (2S,4R)-1-(2-(4-acetamido-3-acetyl-1H-indol-1-yl)acetyl)-N-(2′-chloro-2-fluorobiphenyl-3-yl)-4-fluoropyrrolidine-2-carboxamide] | > 10000
3 | NC(=O)c1nn(CC(=O)N2C[C@H](F)C[C@H]2C(=O)Nc2cccc(-c3ccc(F)c(F)c3Cl)c2F)c2ccccc12 [Compound 92, 1-(2-((2S,4R)-2-(2′-chloro-2,3′,4′-trifluorobiphenyl-3-ylcarbamoyl)-4-fluoropyrrolidin-1-yl)-2-oxoethyl)-1H-indazole-3-carboxamide] | < 1000
4 | CC(=O)c1cn(CC(=O)N2C[C@H](F)C[C@H]2C(=O)Nc2cccc(-c3ccc(F)c(F)c3Cl)c2F)c2ccccc12 [Compound 93, (2S,4R)-1-(2-(3-acetyl-1H-indol-1-yl)acetyl)-N-(2′-chloro-2,3′,4′-trifluorobiphenyl-3-yl)-4-fluoropyrrolidine-2-carboxamide] | < 1000
5 | NC(=O)c1nn(CC(=O)N2C[C@H](F)C[C@H]2C(=O)Nc2cccc(-c3cc(F)cc(F)c3Cl)c2F)c2ccccc12 [Compound 94, 1-(2-((2S,4R)-2-(2′-chloro-2,3′,5′-trifluorobiphenyl-3-ylcarbamoyl)-4-fluoropyrrolidin-1-yl)-2-oxoethyl)-1H-indazole-3-carboxamide] | < 1000
6 | CC(=O)c1cn(CC(=O)N2C[C@H](F)C[C@H]2C(=O)Nc2cccc(-c3cc(F)cc(F)c3Cl)c2F)c2ccccc12 [Compound 95, (2S,4R)-1-(2-(3-acetyl-1H-indol-1-yl)acetyl)-N-(2′-chloro-2,3′,5′-trifluorobiphenyl-3-yl)-4-fluoropyrrolidine-2-carboxamide] | < 1000
7 | CC(=O)c1cn(CC(=O)N2C[C@H](F)C[C@H]2C(=O)Nc2cccc(-c3ccccc3Cl)c2F)c2cccc(C#N)c12 [Compound 97, (2S,4R)-1-(2-(3-acetyl-4-cyano-1H-indol-1-yl)acetyl)-N-(2′-chloro-2-fluorobiphenyl-3-yl)-4-fluoropyrrolidine-2-carboxamide] | < 1000
8 | NC(=O)c1cn(CC(=O)N2C[C@H](F)C[C@H]2C(=O)Nc2cccc(-c3ccccc3Cl)c2F)c2sccc12 [Compound 98, 6-(2-((2S,4R)-2-(2′-chloro-2-fluorobiphenyl-3-ylcarbamoyl)-4-fluoropyrrolidin-1-yl)-2-oxoethyl)-6H-thieno[2,3-b]pyrrole-4-carboxamide] | < 1000
9 | NC(=O)c1nn(CC(=O)N2C[C@H](F)C[C@H]2C(=O)Nc2cccc(-c3ccccc3Cl)c2F)c2ccsc12 [Compound 99, 1-(2-((2S,4R)-2-(2′-chloro-2-fluorobiphenyl-3-ylcarbamoyl)-4-fluoropyrrolidin-1-yl)-2-oxoethyl)-1H-thieno[3,2-c]pyrazole-3-carboxamide] | < 1000
10 | NC(=O)c1nn(CC(=O)N2C[C@H](F)C[C@H]2C(=O)Nc2cccc(-c3c(F)cc(F)cc3Cl)n2)c2cnccc12 [Compound 100, 1-(2-((2S,4R)-2-(6-(2-chloro-4,6-difluorophenyl)pyridin-2-ylcarbamoyl)-4-fluoropyrrolidin-1-yl)-2-oxoethyl)-1H-pyrazolo[3,4-c]pyridine-3-carboxamide] | < 1000
11 | NC(=O)c1nn(CC(=O)N2C[C@H](F)C[C@H]2C(=O)Nc2cccc(-c3c(F)cc(F)cc3Cl)c2)c2cnccc12 [Compound 101, 1-(2-((2S,4R)-2-(2′-chloro-4′,6′-difluorobiphenyl-3-ylcarbamoyl)-4-fluoropyrrolidin-1-yl)-2-oxoethyl)-1H-pyrazolo[3,4-c]pyridine-3-carboxamide] | < 1000
12 | NC(=O)c1nn(CC(=O)N2C[C@H](F)C[C@H]2C(=O)Nc2cccc(-c3ccccc3Cl)c2F)c2c1CCCC2 [Compound 104, 1-(2-((2S,4R)-2-(2′-chloro-2-fluorobiphenyl-3-ylcarbamoyl)-4-fluoropyrrolidin-1-yl)-2-oxoethyl)-4,5,6,7-tetrahydro-1H-indazole-3-carboxamide] | < 1000
13 | NC(=O)c1nn(CC(=O)N2C[C@H](F)C[C@H]2C(=O)Nc2cccc(Br)n2)c2ccsc12 [Compound 106, 1-(2-((2S,4R)-2-(6-bromopyridin-2-ylcarbamoyl)-4-fluoropyrrolidin-1-yl)-2-oxoethyl)-1H-thieno[3,2-c]pyrazole-3-carboxamide] | < 1000
14 | NC(=O)c1nn(CC(=O)N2[C@@H]3C[C@@H]3C[C@H]2C(=O)NCc2cccc(Cl)c2F)c2ccsc12 [Compound 107, 1-(2-((1R,3S,5R)-3-(3-chloro-2-fluorobenzylcarbamoyl)-2-azabicyclo[3.1.0]hexan-2-yl)-2-oxoethyl)-1H-thieno[3,2-c]pyrazole-3-carboxamide] | < 1000
15 | COc1ncc(-c2cn(CC(=O)N3C[C@H](F)C[C@H]3C(=O)Nc3cccc(-c4ccccc4Cl)c3F)nc2C(N)=O)cn1 [Compound 110, 1-(2-((2S,4R)-2-(2′-chloro-2-fluorobiphenyl-3-ylcarbamoyl)-4-fluoropyrrolidin-1-yl)-2-oxoethyl)-4-(2-methoxypyrimidin-5-yl)-1H-pyrazole-3-carboxamide] | > 10000
16 | N#Cc1cccc2c(C(N)=O)nn(CC(=O)N3C[C@H](F)C[C@H]3C(=O)Nc3cccc(-c4ccccc4Cl)c3F)c12 [Compound 111, 1-(2-((2S,4R)-2-(2′-chloro-2-fluorobiphenyl-3-ylcarbamoyl)-4-fluoropyrrolidin-1-yl)-2-oxoethyl)-7-cyano-1H-indazole-3-carboxamide] | < 1000
17 | CC(=O)c1cn(CC(=O)N2C[C@H](F)C[C@H]2C(=O)Nc2cccc(-c3ccccc3Cl)c2F)c2c(-c3ccc(Cl)nc3)cccc12 [Compound 112, (2S,4R)-1-(2-(3-acetyl-7-(6-chloropyridin-3-yl)-1H-indol-1-yl)acetyl)-N-(2′-chloro-2-fluorobiphenyl-3-yl)-4-fluoropyrrolidine-2-carboxamide] | < 1000
18 | Cc1cc2c(s1)c(C(N)=O)nn2CC(=O)N1C[C@H](F)C[C@H]1C(=O)Nc1cccc(-c2ccccc2Cl)c1F [Compound 113, 1-(2-((2S,4R)-2-(2′-chloro-2-fluorobiphenyl-3-ylcarbamoyl)-4-fluoropyrrolidin-1-yl)-2-oxoethyl)-5-methyl-1H-thieno[3,2-c]pyrazole-3-carboxamide] | < 1000
19 | CC(=O)c1cn(CC(=O)N2C[C@H](F)C[C@H]2C(=O)Nc2cccc(-c3ccccc3Cl)c2F)c2c(-c3cn[nH]c3)cccc12 [Compound 114, (2S,4R)-1-(2-(3-acetyl-7-(1H-pyrazol-4-yl)-1H-indol-1-yl)acetyl)-N-(2′-chloro-2-fluorobiphenyl-3-yl)-4-fluoropyrrolidine-2-carboxamide] | < 1000
20 | CC(=O)c1cn(CC(=O)N2C[C@H](F)C[C@H]2C(=O)Nc2cccc(-c3ccccc3Cl)c2F)c2c(C3CC3)cccc12 [Compound 115, (2S,4R)-1-(2-(3-acetyl-7-cyclopropyl-1H-indol-1-yl)acetyl)-N-(2′-chloro-2-fluorobiphenyl-3-yl)-4-fluoropyrrolidine-2-carboxamide] | < 1000
21 | CC(=O)c1ccc(Cl)c(-c2cccc(NC(=O)[C@@H]3C[C@@H](F)CN3C(=O)Cn3nc(C(N)=O)c4ccccc43)c2F)c1 [Compound 117, 1-(2-((2S,4R)-2-(5′-acetyl-2′-chloro-2-fluorobiphenyl-3-ylcarbamoyl)-4-fluoropyrrolidin-1-yl)-2-oxoethyl)-1H-indazole-3-carboxamide] | < 1000
22 | Cc1cc2c(s1)c(C(N)=O)nn2CC(=O)N1C[C@H](F)C[C@H]1C(=O)Nc1cccc(Br)n1 [Compound 118, 1-(2-((2S,4R)-2-(6-bromopyridin-2-ylcarbamoyl)-4-fluoropyrrolidin-1-yl)-2-oxoethyl)-5-methyl-1H-thieno[3,2-c]pyrazole-3-carboxamide] | < 1000
23 | CC(=O)c1cn(CC(=O)N2C[C@H](F)C[C@H]2C(=O)Nc2cccc(Br)n2)c2ccc(C3(NC(=O)c4ncccn4)CC3)cc12 [Compound 119, N-(1-(3-acetyl-1-(2-((2S,4R)-2-(6-bromopyridin-2-ylcarbamoyl)-4-fluoropyrrolidin-1-yl)-2-oxoethyl)-1H-indol-5-yl)cyclopropyl)pyrimidine-2-carboxamide] | < 1000
24 | NC(=O)c1nn(CC(=O)N2C[C@H](F)C[C@H]2C(=O)Nc2cccc(-c3cc(OC(F)(F)F)ccc3Cl)c2F)c2ccccc12 [Compound 120, 1-(2-((2S,4R)-2-(2′-chloro-2-fluoro-5′-(trifluoromethoxy)biphenyl-3-ylcarbamoyl)-4-fluoropyrrolidin-1-yl)-2-oxoethyl)-1H-indazole-3-carboxamide] | < 1000
25 | NC(=O)c1cn(CC(=O)N2C[C@H](F)C[C@H]2c2nc3cc(-c4ccccc4Cl)ccc3[nH]2)c2ccccc12 [Compound 121, 1-(2-((2S,4R)-2-(5-(2-chlorophenyl)-1H-benzo[d]imidazol-2-yl)-4-fluoropyrrolidin-1-yl)-2-oxoethyl)-1H-indole-3-carboxamide] | > 10000
26 | NC(=O)c1nn(CC(=O)N2C[C@H](F)C[C@H]2C(=O)Nc2cccc(-c3ccc4[nH]cnc4c3Cl)c2F)c2ccccc12 [Compound 122, 1-(2-((2S,4R)-2-(3-(4-chloro-1H-benzo[d]imidazol-5-yl)-2-fluorophenylcarbamoyl)-4-fluoropyrrolidin-1-yl)-2-oxoethyl)-1H-indazole-3-carboxamide] | < 1000
